Source: patent US20250288599A1, “PHARMACEUTICAL COMPOSITIONS AND METHODS FOR TREATING OSTEOARTHRITIS” (INSIGNIA PHARMACEUTICALS, LLC, priority 2024, published 2025)

Columns and labels:
[1] = tested on: MMP3 expression in normal human dermal fibroblasts (NHDF); assay: MMP3 mRNA in NHDF activated with IL-1β, 24 h, qRT-PCR; assay type: cell-based; conditions: IL-1β 0.1 ng/ml, 100 mM Lac or 0.1 mM Dxp, IL-1β alone 3.5±1.7
Description: (§1) After 24 hours, total mRNA was isolated and delta-delta Cp relative expression was calculated versus untreated medium controls, normalized to the housekeeping gene, GAPDH. Statistical analysis was then conducted via t-test.

[2] = tested on: SOX9 expression in human osteoarthritic chondrocytes; assay: SOX9 relative expression in high and low passage osteoarthritic chondrocytes, 7, 14 or 28 days; assay type: cell-based
From the text: Media was exchanged bi-weekly. […] SOX9 is a transcription factor vital to the development and maintenance of cartilage and is required for chondrogenesis. SOX9 promotes chondrocyte survival and transcriptionally activates cartilage-specific genes. SOX9 is repressed in hypertrophic chondrocytes (i.e. terminally differentiated osteoblast-like cells).

[3] = tested on: SOX9 expression in dedifferentiated osteoarthritic chondrocytes; assay: SOX9 relative expression in dedifferentiated osteoarthritic chondrocytes treated 14 days with Lac; assay type: cell-based, human
From the text: Lac is commonly thought to be simply an end-product of anaerobic glycolysis; however, it may also have immunomodulatory effects and promote protein modifications that alter gene expression. The goal of this experiment was to determine how Lac supplementation affects early-phase, inflammatory, and late-stage redifferentiation in chondrocyte models. To establish how Lac may influence inflammation early in osteoarthritis, monolayers of normal human chondrocytes were exposed to Lac dose responses of up to 100 millimolar, concurrently with 0.5 nanograms per milliliter IL-1β for 48 hours. The release of PGE2 was then quantified using competitive EIA. To investigate how Lac affects transcriptional programs in dedifferentiated osteoarthritic chondrocytes, monolayer cultures and micromass pellets were treated for 14 days with 100 millimolar final concentrations of Lac, with and without 10 nanograms per milliliter transforming growth factor beta 3 (TGF-β3). Total RNA was then isolated, and relative expression of SOX9 or Col2a1 was calculated using qRT-PCR, normalized to GAPDH. […] Lac may also have beneficial effects on osteoarthritic chondrocytes; 100 millimolar final Lac concentrations increased the relative expression of SOX9 and Col2a1 by 8-fold and 1600-fold, respectively, in monolayer cultures. […]

[4] = tested on: ACAN expression in human osteoarthritic chondrocytes; assay: ACAN relative expression in human osteoarthritic chondrocytes (passage 5) cultured 27 days; assay type: cell-based; conditions: 50 micromolar Dec, 0.1 μM Dxp, 100 mM Lac
From the text: Delta-delta relative gene expression was employed to determine ACAN regulation in the 27-day samples referenced in Examples 15 and 16. A 3.81±0.77-fold increase in ACAN expression in the cells after 27 days of Lac treatment was observed. […] Without being bound by theory, it is hypothesized that these findings indicate that metabolic management and/or metabolite feedback loops represent promising therapy targets for osteoarthritis. Results associated with Example 17 are depicted in FIG. 53.

[5] = tested on: PGE2 release from passage 3 normal human chondrocytes; assay: Rescue versus preincubation regimens, IL-1β-induced PGE2 release from passage 3 normal human chondrocytes; assay type: cell-based; conditions: 25 μM Dec, 28 mM Lac, 10 μM LA, singlet
From the text: The mechanisms of action (MOA) of a drug often dictate the timing and delivery of treatment regimens. While the MOA of compounds disclosed herein continue to be elucidated, experiments were designed to help establish how the drugs should be administered. Furthermore, these experiments will also help with hypothesis generation for subsequent MOA investigations. A low-passage chondrocyte monolayer model was utilized to establish how changes in drug delivery impact the inhibition of IL-1β-induced PGE2 release seen following treatment with the compounds under investigation.
Passage 3 normal human chondrocytes were seeded into tissue culture plates and then tested for compound activity by pre-treating for 24 hours, administering at the same time as activation, or by adding to cells following an overnight activation with IL-1β. Treatment groups included medium control, 25 μM decanoate (Dec), 28 mM D/L sodium Lac, and 10 μM LA. PGE2 release was then evaluated 24- or 96-hours post-activation with percent inhibitions calculated versus plate- and block-matched controls. The experiments were performed in singlet and are intended to be repeated to establish variance.

[6] = tested on: MMP12 expression in normal human dermal fibroblasts (NHDF); assay: MMP12 mRNA in NHDF activated with IL-1β, 24 h, qRT-PCR; assay type: cell-based; conditions: IL-1β 0.1 ng/ml, 100 mM Lac or 0.1 mM Dxp, IL-1β alone 17.8±12.3
Description: as §1

[7] = tested on: Elastin (ELN) expression in normal human dermal fibroblasts (NHDF); assay: ELN mRNA in NHDF activated with TGF-β1 or IL-1β, 24 h, qRT-PCR; assay type: cell-based; conditions: 100 mM Lac or 0.1 mM Dxp
Description: as §1

[8] = tested on: Col2a1 expression in dedifferentiated osteoarthritic chondrocytes; assay: Col2a1 relative expression in dedifferentiated osteoarthritic chondrocytes treated 14 days with Lac; assay type: cell-based, human
From the text: Lac is commonly thought to be simply an end-product of anaerobic glycolysis; however, it may also have immunomodulatory effects and promote protein modifications that alter gene expression. The goal of this experiment was to determine how Lac supplementation affects early-phase, inflammatory, and late-stage redifferentiation in chondrocyte models. To establish how Lac may influence inflammation early in osteoarthritis, monolayers of normal human chondrocytes were exposed to Lac dose responses of up to 100 millimolar, concurrently with 0.5 nanograms per milliliter IL-1β for 48 hours. The release of PGE2 was then quantified using competitive EIA. To investigate how Lac affects transcriptional programs in dedifferentiated osteoarthritic chondrocytes, monolayer cultures and micromass pellets were treated for 14 days with 100 millimolar final concentrations of Lac, with and without 10 nanograms per milliliter transforming growth factor beta 3 (TGF-β3). Total RNA was then isolated, and relative expression of SOX9 or Col2a1 was calculated using qRT-PCR, normalized to GAPDH. […] Lac may also have beneficial effects on osteoarthritic chondrocytes; 100 millimolar final Lac concentrations increased the relative expression of SOX9 and Col2a1 by 8-fold and 1600-fold, respectively, in monolayer cultures. […] Furthermore, adding Lac with TGF-β3 to micromass cultures increased SOX9 and Col2a1 by 9-fold and 88-fold, respectively.

[9] = tested on: SOX9 expression in dedifferentiated osteoarthritic chondrocytes; assay: SOX9 relative expression in high passage osteoarthritic chondrocyte monolayer model with TGF-β; assay type: cell-based, human; conditions: 14 days in culture with TGF-β; 28 mM Lac, 100 mm LA
Description: These compounds were tested in a high passage osteoarthritic chondrocyte monolayer model, alone or in combination with other agents, for both transcriptional regulation of standard markers and IL-1β-induced PGE2 production.

[10] = tested on: PGE2 release from normal human chondrocytes; assay: IL-1β-induced PGE2 release from normal human chondrocyte monolayers, 48 h, competitive EIA; assay type: cell-based
Description: Mechanical stress and inflammation are thought to sustain catabolic cycles of extracellular matrix deterioration during osteoarthritis. In particular, PGE2 correlates with increased protease production and discomfort or pain in osteoarthritis.
After 48-hours, PGE2 release was evaluated by competitive EIA, and relative potency was calculated versus dose responses of Dex alone.
After 48 hours, PGE2 release was evaluated by competitive enzyme immunoassay (EIA), and relative potency was calculated versus Dex alone.
Lac is commonly thought to be simply an end-product of anaerobic glycolysis; however, it may also have immunomodulatory effects and promote protein modifications that alter gene expression. The goal of this experiment was to determine how Lac supplementation affects early-phase, inflammatory, and late-stage redifferentiation in chondrocyte models. To establish how Lac may influence inflammation early in osteoarthritis, monolayers of normal human chondrocytes were exposed to Lac dose responses of up to 100 millimolar, concurrently with 0.5 nanograms per milliliter IL-1β for 48 hours. The release of PGE2 was then quantified using competitive EIA. To investigate how Lac affects transcriptional programs in dedifferentiated osteoarthritic chondrocytes, monolayer cultures and micromass pellets were treated for 14 days with 100 millimolar final concentrations of Lac, with and without 10 nanograms per milliliter transforming growth factor beta 3 (TGF-β3). Total RNA was then isolated, and relative expression of SOX9 or Col2a1 was calculated using qRT-PCR, normalized to GAPDH.

[11] = low passage osteoarthritic chondrocytes, 7, 14, 28 days
[12] = 100 millimolar Lac with TGF-β3, 14 days, micromass cultures
[13] = 100 millimolar Lac, 14 days, monolayer cultures

With `CC(O)C(=O)O` (stereo not drawn) [Lac, lactate] the “relative expression of MMP3” value [1] was 1.5±0.8, the SOX9 expression ([2]; high passage, dedifferentiated osteoarthritic chondrocytes with TGF-β3, 14 days) was “increased SOX9 transcription” and the SOX9 expression [2, 11] was “temporal increase in SOX9”. For the same molecule, the “ratio of SOX9/RUNX2” value [2, 11] was “temporally increased”, the “increase in SOX9” value [3, 12] was 9 fold and the “increase in relative expression of SOX9” value [3, 13] was 8 fold. The “ACAN delta-delta relative gene expression” value [4] was 3.81±0.77 fold, the “inhibition of PGE2 release” value ([5]; rescue (added after overnight IL-1β activation), 24-hour harvest) was 64% and the “inhibition of PGE2 release” value ([5]; rescue, 96-hour harvest) was 27%. For the same molecule, the “relative expression of MMP12” value [6] was 2.2±0.8, the “relative expression of ELN” value ([7]; IL-1β 0.1 ng/ml, IL-1β alone 18±12, n=3) was 0.86±3 and the “relative expression of ELN” value ([7]; TGF-β1 10 ng/ml, TGF-β1 alone 110±35, n=3) was 45+36. The “increase in Col2a1” value [8, 12] was 88 fold, the increase in collagen ([8]; 100 millimolar Lac, 14 days, micromass pellets) was 11 fold and the “increase in relative expression of Col2a1” value [8, 13] was 1600 fold. For the same molecule, the “increase in SOX9 transcription” value [9] was 2 fold, the “concentration with statistically significant effect on PGE2 release” value ([10]; IL-1β 48 h) was no less than 10 millimolar and the “inhibition of PGE2 release” value ([10]; Lac 100 millimolar, 0.5 ng/mL IL-1β, 48 h) was “complete inhibition”.
